According to patent US6737383B1, “Herbicidal oxadiazolidines” (priority 1999, dated 2004):

Columns and labels:
[1] = test system: wheat; experiment: Test B pre/postemergence wheat; type: in vivo, Triticum aestivum
How it was run: (§1)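 Herbicidal effect was estimated by eye on a ten-point control scale after plants spent twelve to sixteen days in a greenhouse following soil or foliar treatment. Foliar sprays targeted plants at one to four leaves; all doses were formulated in a non-phytotoxic solvent with surfactant.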

[2] = test system: soybean; experiment: Test B pre/postemergence soybean; type: in vivo, Glycine max
How it was run: as §1

[3] = test system: crabgrass; experiment: Test B pre/postemergence crabgrass; type: in vivo, Digitaria sanguinalis
How it was run: as §1

[4] = test system: pigweed; experiment: Test B pre/postemergence pigweed; type: in vivo, Amaranthus retroflexus
How it was run: as §1

[5] = test system: velvetleaf; experiment: Test B pre/postemergence velvetleaf; type: in vivo, Abutilon theophrasti
How it was run: as §1

[6] = test system: surinam grass; experiment: Test B pre/postemergence surinam grass; type: in vivo, Brachiaria decumbens
How it was run: as §1

[7] = test system: blackgrass; experiment: Test B pre/postemergence blackgrass; type: in vivo, Alopecurus myosuroides
How it was run: as §1

[8] = test system: cocklebur; experiment: Test B pre/postemergence cocklebur; type: in vivo, Xanthium strumarium
How it was run: as §1

[9] = test system: sugar beet; experiment: Test B pre/postemergence sugar beet; type: in vivo, Beta vulgaris
How it was run: as §1

[10] = test system: purple nutsedge; experiment: Test B pre/postemergence purple nutsedge; type: in vivo, Cyperus rotundus
How it was run: as §1

[11] = test system: morningglory; experiment: Test B pre/postemergence morningglory; type: in vivo, Ipomoea hederacea
How it was run: as §1

[12] = test system: rape; experiment: Test B pre/postemergence rape; type: in vivo, Brassica napus
How it was run: as §1

[13] = test system: giant foxtail; experiment: Test B pre/postemergence giant foxtail; type: in vivo, Setaria faberii
How it was run: as §1

[14] = test system: corn; experiment: Test B pre/postemergence corn; type: in vivo, Zea mays
How it was run: as §1

[15] = test system: wild oat; experiment: Test B pre/postemergence wild oat; type: in vivo, Avena fatua
How it was run: as §1

[16] = test system: bedstraw; experiment: Test B pre/postemergence bedstraw; type: in vivo, Galium aparine
How it was run: as §1

[17] = Preemergence, Rate 62 g/ha, scale of 0 to 10 where 0 is no effect and 10 is complete control
[18] = Preemergence, Rate 125 g/ha, 0 is no effect, 10 is complete control
[19] = Preemergence, Rate 250 g/ha, scale 0 to 10, 0 is no effect, 10 is complete control
[20] = Preemergence, Rate 500 g/ha, scale 0 to 10 (0 no effect, 10 complete control)
[21] = Rate 250 g/ha, Postemergence, scale 0 to 10, 0 is no effect, 10 is complete control
[22] = Rate 500 g/ha, Postemergence, scale 0 to 10
[23] = Postemergence, Rate 125 g/ha, scale of 0 to 10 where 0 is no effect and 10 is complete control
[24] = Rate 62 g/ha, Postemergence, scale of 0 to 10 where 0 is no effect and 10 is complete control

CC(C)N(C(=O)n1oc(=O)n([C@H](C)c2ccccc2)c1=O)c1ccc(Cl)cc1 [Compound 178]
0: Wheat plant response rating [1, 17] | Wheat plant response rating (0 to 10 scale) [1, 18] | Wheat plant response rating [1, 19] | Wheat plant response rating [1, 20] | Plant response rating, Wheat [1, 21] | Soybean plant response rating [2, 17] | Soybean plant response rating (0 to 10 scale) [2, 18] | Soybean plant response rating [2, 19] | Soybean plant response rating [2, 20] | Crabgrass plant response rating [3, 23] | Crabgrass plant response rating [3, 17] | Crabgrass plant response rating [3, 24] | Plant response rating, Crabgrass [3, 21] | Redroot pigweed plant response rating [4, 17] | Redroot pigweed plant response rating (0 to 10 scale) [4, 18] | Redroot pigweed plant response rating [4, 24] | Velvetleaf plant response rating [5, 17] | Velvetleaf plant response rating (0 to 10 scale) [5, 18] | Velvetleaf plant response rating [5, 19] | Velvetleaf plant response rating [5, 20] | Plant response rating, Velvetleaf [5, 21] | Velvetleaf plant response rating [5, 22] | B. signalgrass plant response rating [6, 23] | B. signalgrass plant response rating [6, 24] | Plant response rating, B. signalgrass [6, 21] | Blackgrass plant response rating [7, 23] | Blackgrass plant response rating [7, 17] | Blackgrass plant response rating (0 to 10 scale) [7, 18] | Blackgrass plant response rating [7, 19] | Blackgrass plant response rating [7, 24] | Plant response rating, Blackgrass [7, 21] | Cocklebur plant response rating [8, 23] | Cocklebur plant response rating [8, 17] | Cocklebur plant response rating (0 to 10 scale) [8, 18] | Cocklebur plant response rating [8, 19] | Cocklebur plant response rating [8, 20] | Cocklebur plant response rating [8, 24] | Plant response rating, Cocklebur [8, 21] | Cocklebur plant response rating [8, 22] | Sugarbeets plant response rating [9, 23] | Sugarbeets plant response rating [9, 17] | Sugarbeets plant response rating (0 to 10 scale) [9, 18] | Sugarbeets plant response rating [9, 19] | Sugarbeets plant response rating [9, 20] | Sugarbeets plant response rating [9, 24] | Plant response rating, Sugarbeets [9, 21] | Sugarbeets plant response rating [9, 22] | Nutsedge plant response rating [10, 23] | Nutsedge plant response rating [10, 17] | Nutsedge plant response rating (0 to 10 scale) [10, 18] | Nutsedge plant response rating [10, 19] | Nutsedge plant response rating [10, 20] | Nutsedge plant response rating [10, 24] | Plant response rating, Nutsedge [10, 21] | Nutsedge plant response rating [10, 22] | Morningglory plant response rating [11, 17] | Morningglory plant response rating (0 to 10 scale) [11, 18] | Morningglory plant response rating [11, 19] | Morningglory plant response rating [11, 20] | Rape plant response rating [12, 23] | Rape plant response rating [12, 17] | Rape plant response rating (0 to 10 scale) [12, 18] | Rape plant response rating [12, 19] | Rape plant response rating [12, 20] | Rape plant response rating [12, 24] | Plant response rating, Rape [12, 21] | Rape plant response rating [12, 22] | Giant foxtail plant response rating [13, 23] | Giant foxtail plant response rating [13, 24] | Plant response rating, Giant foxtail [13, 21] | Corn plant response rating [14, 23] | Corn plant response rating [14, 17] | Corn plant response rating (0 to 10 scale) [14, 18] | Corn plant response rating [14, 19] | Corn plant response rating [14, 20] | Corn plant response rating [14, 24] | Plant response rating, Corn [14, 21] | Corn plant response rating [14, 22] | Wild oats plant response rating [15, 17] | Wild oats plant response rating (0 to 10 scale) [15, 18] | Wild oats plant response rating [15, 19] | Plant response rating, Wild oats [15, 21] | Wild oats plant response rating [15, 22] | Bedstraw plant response rating [16, 23] | Bedstraw plant response rating [16, 17] | Bedstraw plant response rating (0 to 10 scale) [16, 18] | Bedstraw plant response rating [16, 19] | Bedstraw plant response rating [16, 20] | Bedstraw plant response rating [16, 24] | Plant response rating, Bedstraw [16, 21] | Bedstraw plant response rating [16, 22]
6: Redroot pigweed plant response rating [4, 19] | B. signalgrass plant response rating [6, 17]
7: Redroot pigweed plant response rating [4, 23] | Redroot pigweed plant response rating [4, 22] | B. signalgrass plant response rating (0 to 10 scale) [6, 18]
8: Crabgrass plant response rating [3, 19] | B. signalgrass plant response rating [6, 19] | Giant foxtail plant response rating [13, 19]
2: Wheat plant response rating [1, 22] | Plant response rating, Soybean [2, 21] | Soybean plant response rating [2, 22] | Crabgrass plant response rating (0 to 10 scale) [3, 18] | Crabgrass plant response rating [3, 22] | B. signalgrass plant response rating ([6]; Rate 500 g/ha, Postemergence, scale 0 to 10, 0 no effect, 10 complete control) | Morningglory plant response rating [11, 23] | Morningglory plant response rating [11, 24] | Plant response rating, Morningglory [11, 21] | Giant foxtail plant response rating [13, 22]
10: Redroot pigweed plant response rating [4, 20]
9: Crabgrass plant response rating [3, 20] | B. signalgrass plant response rating [6, 20] | Giant foxtail plant response rating [13, 20]
4: Giant foxtail plant response rating [13, 17] | Giant foxtail plant response rating (0 to 10 scale) [13, 18]
1: Soybean plant response rating [2, 23] | Soybean plant response rating [2, 24]
3: Blackgrass plant response rating [7, 20] | Morningglory plant response rating [11, 22] | Wild oats plant response rating [15, 20]
